Test results from ChEMBL document CHEMBL1641484, “Efficient synthesis of trisaccharide saponins and their tumor cell killing effects through oncotic necrosis” (Bioorg Med Chem Lett, 2011).
Activity calls are given as the source filed them. The rule behind the calls is not given here.

Assays:
MCF7 [1] = experiment: Cytotoxicity against human MCF7 cells after 4 hrs by MTT assay; format: functional, cell-based; settings: MCF7, 4 h
KB [2] = experiment: Cytotoxicity against human KB cells after 4 hrs by MTT assay; format: functional, cell-based
K562 [3] = experiment: Cytotoxicity against human K562 cells after 4 hrs by MTT assay; format: functional, cell-based; settings: K562, 4 h
[4] = Cytotoxicity against human U87 cells after 4 hrs by MTT assay; format: functional, cell-based, U-87MG ATCC; settings: U-87 MG
[5] = Cytotoxicity against human HL-7702 cells after 4 hrs by MTT assay; format: cell-based; settings: L02, 4 h
[6] = Cytotoxicity against human EVC304 cells after 4 hrs by MTT assay; format: cell-based; settings: EVC304, 4 h
H9c2 = experiment: Cytotoxicity against rat H9c2 cells after 4 hrs by MTT assay; format: cell-based; settings: H9c2, 4 h
MCF7 [7] = experiment: Anticancer activity against human MCF7 cells assessed as loss of plasma membrane integrity at 5 uM after 180 mins by LDH release assay; format: functional, cell-based
K562 [8] = experiment: Anticancer activity against human K562 cells assessed as membrane surface blebs at 5 uM after 15 to 30 mins by time-lapse microscopy; format: functional, cell-based
K562 [9] = experiment: Anticancer activity against human K562 cells assessed as loss of cell membrane integrity after 12 hrs by propidium iodide staining-based fluorescence microscopy; format: functional
KB [10] = experiment: Anticancer activity against human KB cells assessed as loss of cell membrane integrity after 12 hrs by propidium iodide staining-based fluorescence microscopy; format: functional
MCF7 [11] = experiment: Anticancer activity against human MCF7 cells assessed as loss of plasma membrane integrity at 5 uM after 10 mins by LDH release assay; format: functional, cell-based
K562 [12] = experiment: Anticancer activity against human K562 cells assessed as membrane surface blebs at 5 uM after 30 to 60 mins by time-lapse microscopy; format: functional, cell-based
MCF7 [13] = experiment: Anticancer activity against human MCF7 cells assessed as loss of microtubules and actin microfilaments after 12 hrs by immunostaining; format: functional, cell-based
K562 [14] = experiment: Anticancer activity against human K562 cells assessed as loss of plasma membrane integrity at 5 uM after 10 mins by LDH release assay; format: functional, cell-based
K562 [15] = experiment: Anticancer activity against human K562 cells assessed as loss of plasma membrane integrity at 5 uM after 180 mins by LDH release assay; format: functional, cell-based

SMILES	IC50 (MCF7 [1])	IC50 (KB [2])	IC50 (K562 [3])	IC50 [4]	IC50 [5]	IC50 [6]	IC50 (H9c2)	Activity (MCF7 [7])	Activity (K562 [8])	Activity (K562 [9])	Activity (KB [10])	Activity (MCF7 [11])	Activity (K562 [12])	Activity (MCF7 [13])	Activity (K562 [14])	Activity (K562 [15])
C=C(C)[C@@H]1CC[C@]2(C)CC[C@]3(C)[C@H](CC[C@@H]4[C@@]5(C)CC[C@H](O[C@@H]6O[C@H](CO)[C@H](O)[C@H](O[C@@H]7OC[C@@H](O)[C@H](O)[C@H]7O)[C@H]6O[C@@H]6O[C@@H](C)[C@H](O)[C@@H](O)[C@H]6O)C(C)(C)[C@@H]5CC[C@]43C)[C@@H]12	> 40 µM	> 40 µM	> 40 µM	> 40 µM	–	–	–	–	–	–	–	–	–	–	–	–
CC[C@H](CC[C@@H](C)[C@H]1CC[C@H]2[C@@H]3CC=C4C[C@@H](O[C@@H]5O[C@H](CO)[C@H](O)[C@H](O[C@@H]6OC[C@@H](O)[C@H](O)[C@H]6O)[C@H]5O[C@@H]5O[C@@H](C)[C@H](O)[C@@H](O)[C@H]5O)CC[C@]4(C)[C@H]3CC[C@]12C)C(C)C	> 40 µM	> 40 µM	> 40 µM	> 40 µM	–	–	–	–	–	–	–	–	–	–	–	–
CC(C)CCC[C@@H](C)[C@H]1CC[C@H]2[C@@H]3CC=C4C[C@@H](O[C@@H]5O[C@H](CO)[C@H](O)[C@H](O[C@@H]6OC[C@@H](O)[C@H](O)[C@H]6O)[C@H]5O[C@@H]5O[C@@H](C)[C@H](O)[C@@H](O)[C@H]5O)CC[C@]4(C)[C@H]3CC[C@]12C	9.48 µM	16.3 µM	11.3 µM	16.5 µM	> 20 µM	> 20 µM	> 20 µM	–	–	–	–	–	–	–	–	–
C[C@@H]1CC[C@@]2(OC1)O[C@H]1C[C@H]3[C@@H]4CC[C@H]5C[C@@H](O[C@@H]6O[C@H](CO)[C@H](O)[C@H](O[C@@H]7OC[C@@H](O)[C@H](O)[C@H]7O)[C@H]6O[C@@H]6O[C@@H](C)[C@H](O)[C@@H](O)[C@H]6O)CC[C@]5(C)[C@H]4CC[C@]3(C)[C@H]1[C@@H]2C	2.61 µM	1.32 µM	3.77 µM	3.12 µM	6.92 µM	1.03 µM	> 20 µM	Active	inactive	Active	Active	Active	Active	Active	Active	Active
C[C@@H]1CC[C@@]2(OC1)O[C@H]1C[C@H]3[C@@H]4CC=C5C[C@@H](O[C@@H]6O[C@H](CO)[C@H](O)[C@H](O[C@@H]7OC[C@@H](O)[C@H](O)[C@H]7O)[C@H]6O[C@@H]6O[C@@H](C)[C@H](O)[C@@H](O)[C@H]6O)CC[C@]5(C)[C@H]4CC[C@]3(C)[C@H]1[C@@H]2C [INDIOSIDE E]	1.82 µM	1.71 µM	3.74 µM	2.48 µM	4.81 µM	3.93 µM	> 20 µM	–	–	–	–	–	–	–	–	–
C[C@@H]1O[C@@H](O[C@H]2[C@H](O[C@H]3CC[C@]4(C)[C@H]5CC[C@]6(C)C(=CC[C@@]7(C)CCC(C)(C)C[C@H]76)[C@]5(C)CC[C@H]4C3(C)C)O[C@H](CO)[C@H](O)[C@@H]2O[C@@H]2OC[C@@H](O)[C@H](O)[C@H]2O)[C@H](O)[C@H](O)[C@H]1O	> 40 µM	> 40 µM	> 40 µM	> 40 µM	–	–	–	–	–	–	–	–	–	–	–	–
